# Laboratory results from patent US11613552B2, “Pharmaceutical agents, compositions, and methods relating thereto” (Alltech, Inc., priority 2017, dated 2023).
# What was measured:
# Insrβ = target: T1, Insrβ (Mus musculus, UniProt P15208); test: ELISA of phospho-Insrβ in livers of Lepr^db/db mice; type: in vivo; conditions: 0.136 mg/kg ip daily
# T1 construct: gastrocnemius skeletal muscle and liver samples were collected and stored at −80° C; from tissue; host or cells: gastrocnemius skeletal muscle (A22) and liver (A24) of Lepr db/db mice
# T1 sequence (P15208 753-1372 limits assumed): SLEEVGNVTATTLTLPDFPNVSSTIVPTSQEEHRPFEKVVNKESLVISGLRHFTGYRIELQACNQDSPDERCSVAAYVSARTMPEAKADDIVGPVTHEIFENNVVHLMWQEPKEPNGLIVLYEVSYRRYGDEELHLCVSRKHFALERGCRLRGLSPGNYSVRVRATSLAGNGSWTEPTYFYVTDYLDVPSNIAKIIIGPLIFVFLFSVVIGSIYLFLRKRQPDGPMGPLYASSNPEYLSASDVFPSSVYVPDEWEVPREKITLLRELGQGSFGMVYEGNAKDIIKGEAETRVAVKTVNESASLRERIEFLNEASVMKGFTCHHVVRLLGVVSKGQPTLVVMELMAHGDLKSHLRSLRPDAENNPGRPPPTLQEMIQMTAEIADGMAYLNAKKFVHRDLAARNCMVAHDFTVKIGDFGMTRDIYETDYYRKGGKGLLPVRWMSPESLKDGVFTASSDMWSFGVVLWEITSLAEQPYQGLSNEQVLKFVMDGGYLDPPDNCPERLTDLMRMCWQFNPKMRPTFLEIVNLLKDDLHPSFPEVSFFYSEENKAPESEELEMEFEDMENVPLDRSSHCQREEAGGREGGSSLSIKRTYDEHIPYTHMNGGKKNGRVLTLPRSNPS
# T1 sequence (P15208 28-748 partner limits assumed): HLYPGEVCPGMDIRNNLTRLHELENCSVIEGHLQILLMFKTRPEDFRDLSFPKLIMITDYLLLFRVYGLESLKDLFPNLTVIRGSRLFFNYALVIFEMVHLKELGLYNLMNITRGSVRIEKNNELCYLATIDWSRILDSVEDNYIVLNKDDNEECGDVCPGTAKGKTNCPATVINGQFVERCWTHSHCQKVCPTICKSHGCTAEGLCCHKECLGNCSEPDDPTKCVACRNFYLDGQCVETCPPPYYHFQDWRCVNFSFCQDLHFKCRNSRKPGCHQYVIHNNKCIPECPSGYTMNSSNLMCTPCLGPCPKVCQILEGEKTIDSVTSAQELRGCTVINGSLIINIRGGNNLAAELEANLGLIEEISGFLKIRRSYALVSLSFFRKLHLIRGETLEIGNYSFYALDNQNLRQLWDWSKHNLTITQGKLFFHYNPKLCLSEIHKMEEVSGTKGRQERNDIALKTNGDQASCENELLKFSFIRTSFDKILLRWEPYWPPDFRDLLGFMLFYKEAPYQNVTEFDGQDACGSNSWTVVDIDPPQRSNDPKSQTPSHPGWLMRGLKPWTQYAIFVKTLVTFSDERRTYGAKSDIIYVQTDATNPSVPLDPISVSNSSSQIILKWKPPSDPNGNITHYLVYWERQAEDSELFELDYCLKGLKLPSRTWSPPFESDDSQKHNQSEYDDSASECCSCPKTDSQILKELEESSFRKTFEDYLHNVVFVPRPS
# Procedure: Male Lepr^db/db mice (C57BL/6J strain, purchased from The Jackson Laboratory) at postnatal day 38 were intraperitoneally injected daily with physiological saline ([…]) containing 0.2% DMSO, or 0.136 mg of Compound #43 per kilogram body weight, diluted in the sterile physiological saline) for 52 days. After the treatment, gastrocnemius skeletal muscle and liver samples were collected and stored at −80° C.
# Frozen skeletal muscle and liver tissues were minced in sterile ice-old PBS containing complete proteinase and phosphatase inhibitors (Thermo-Fisher Scientific, Waltham, Mass.) and subjected to homogenization using a tissue homogenizer (Thermo-Fisher Scientific, Waltham, Mass.). These tissue homogenates were diluted in Themo-Fisher's premade RIPA buffer (1 part homogenate/2 part of RIPA buffer) containing complete proteinase/phosphatase inhibitors to extract the proteins. Proteins in the homogenates were extracted in RIPA buffer at 4° C. overnight. These overnight-extracted protein/tissue lysates were centrifuged at 12000×g for 30 min at 4° C., and the protein levels in the supernatant of these tissue lysates were determined using the Pierce Micro-BCA protein assay kit (Thermo Scientific-Piece Biotechnology, Rockford, Ill.) according to the manufacturer's protocol. […]
# HepG2 cells = test: Cell viability (CellTiter96 AQueous One) in HepG2 cells; type: cell-based, human; conditions: all tested doses, 48 hr
# Procedure: After the above treatments, 50 μl of culture media were collected, and subjected to glucose analysis using Molecular Probes Amplex Red glucose assay kit (Cat #A22189) according to the manufacturer's protocol. Cell numbers or viability in the culture plate after the above compound treatments were determined using Promega's CellTiter96® AQueous One Solution Cell Proliferation Assay kits, according to the manufacturer's protocol and instructions. In brief, after removing 50 μl of culture media for glucose assay, cells were incubated with AQueous One solution (25 μl stock solution and 50 μl prewarmed PBS/per well) at 37° C. for 1 hour, and the absorbance of OD490 nm in each sample was determined by the Bio-Tek microplate reader. Cell viability in culture wells were determined by the subtraction of OD490 nm in cultured cells with the OD490 nm in plain culture media (without seeding of cells). Glucose production in the culture cells were obtained by normalizing the glucose concentration in culture media by cell viability in each well. At least 3 samples per each treatment were examined for the above analysis. Data are presented as Mean±SEM of those samples. Experiments were repeated at least twice.
# [1] = Body weight, gross morphology and walking behavior of treated Lepr^db/db mice; type: in vivo
# Procedure: Body weights of the above treated mice were recorded daily using a balance and any visible abnormal animal gross morphology and walking behavior were monitored daily. After the treatments, animals were fasted overnight and then subjected to blood glucose or HbA1c assays, glucose tolerance tests or tissue collections.
# After the treatments for 43 days, animals were fasted overnight and then subjected to blood glucose and glucose tolerance tests. After daily treatments of these compounds for 90 days, sera from these animals were collected and then subjected to blood HbA1c assays.
structure (smiles),measurement,setting,value
"C[Se]C[C@H]1O[C@@H](n2cnc3c(N)ncnc32)C(OC(C)=O)C1OC(C)=O (stereo partly drawn) [Compound #43, Adenosine, 5′-Se-methyl-5′-selino-, 2′,3′-diacetate]",increase of phosphorylated Insrβ at Tyrosine 1146 in liver,Insrβ; 52 days (FIG. 22A),~2.9 fold
same,increase of phosphorylated Insrβ at Tyrosine 1150/1151 in liver,Insrβ; 52 days (FIG. 22B),~2.95 fold
same,cell viability,HepG2 cells,no significant decrease of cell viability
same,"overt toxic effects (morphology, walking behavior, body weight)","[1]; 25 μg selenium or sulfur/kg ip daily, 3 months",no overt toxic effects
same,"overt toxic effects (morphology, walking behavior, body weight)","[1]; 25 μg selenium/kg ip daily, 90 days, from 41 days of age",no overt toxic effects
same,visible toxic effects on gross morphological and walking behavior,"[1]; acute single ip injection, 0.0054-5.4 mg/kg",did not cause any visible toxic effects
